Experimental data taken from patent US8748520B2, “Polycarbonate resin composition containing triazine compound and molded article using the same” (FUJIFILM Corporation, priority 2009, dated 2014).

Test: Measurement of pKa from absorption spectra
Format: physicochemical
Details: in acetonitrile, 70% perchloric acid (solvent: acetic acid) added dropwise; proton adduct at nitrogen atom of triazine ring
Protocol: <Method for Measuring pKa>
Compound (1) was dissolved in acetonitrile to give an absorbance of 1 and to this solution, 70% perchloric acid (solvent: acetic acid) was added dropwise, thereby varying the pH. At this time, the absorption spectrum of solution was measured and based on the absorbance at λmax, the proportions of a triazine-free form and a proton adduct were calculated at each pH. From the point at which these values became equal, the pKa value was determined. Here, the triazine-free form indicates Compound (1) itself, and the proton adduct indicates a compound resulting from addition of a proton to the nitrogen atom of triazine ring of Compound (1). […] The absorption spectrum was measured using a spectrophotometer, UV-3600 (trade name), manufactured by Shimadzu Corporation, and the pH was measured using a pH meter, HM60G (trade name), manufactured by To a Denpa Kogyo. Incidentally, the absorbance is a value measured at the maximum absorption wavelength of each compound.

Row | pKa | SMILES
1 | -5 | CCCCCCCCCC(CCCCCCC)COC(=O)c1ccc(-c2nc(-c3ccccc3O)nc(-c3ccc(OC)cc3O)n2)cc1 (stereo not shown) [Compound (118)]
2 | -5 | COc1ccc(-c2nc(-c3ccc(C(=O)OCC(CCC(C)CCCC(C)C)C(C)CCCC(C)C)cc3)nc(-c3ccccc3O)n2)c(O)c1 (stereo not shown) [Compound (119)]

The next lines start with the compound.

Row | SMILES | pKa
3 | COC(=O)c1ccc(-c2nc(-c3ccccc3O)nc(-c3ccc(OC)cc3O)n2)cc1 [Compound (104)] | -5
4 | COc1ccc(-c2nc(-c3ccc(C(=O)OCC(CCCCC(C)C)CCC(C)C)cc3)nc(-c3ccccc3O)n2)c(O)c1 (stereo not shown) [Compound (114)] | -5
5 | CCCCCCCCC(CCCCCC)COC(=O)c1ccc(-c2nc(-c3ccccc3O)nc(-c3ccc(OC)cc3O)n2)cc1 (stereo not shown) [Compound (115)] | -5
6 | CCC(C)CCCCCC(CCCC(C)CC)COC(=O)c1ccc(-c2nc(-c3ccccc3O)nc(-c3ccc(OC)cc3O)n2)cc1 (stereo not shown) [Compound (116)] | -5
7 | COc1ccc(-c2nc(-c3ccc(C(=O)OCC(CCC(C)CC(C)(C)C)C(C)CC(C)(C)C)cc3)nc(-c3ccccc3O)n2)c(O)c1 (stereo not shown) [Compound (117)] | -5
